Series [1] can be described thus: Small volume dissolution-permeation (MicroFLUX). The conditions noted are these: small scale; donor pH 1.6 converted to FaSSIF pH 6.5 after 30 min, acceptor pH 7.4, 37°C, calculated between 70 and 100 min. The class given is in vitro ADME. The protocol:
(§1) The flux across the membrane was calculated using the following equation: 1 Jt=Δn/A*Δt
(§2) where the flux (J) of a drug through the membrane is defined as the amount (n) of drug crossing a unit area (A) perpendicular to its flow per unit time (t). 2 Pe=J/CD where the Pe is the effective permeability of the drug and CD is donor concentration.
Electrospun formulations of TEL were tested using μFLUX (Pion Inc., Billerica MA, USA) apparatus which consists of a donor and an acceptor chamber separated by an artificial membrane (PVDF, polyvinylidenfluoride, 0.45 μm, 1.54 cm^2) impregnated with 25 μL n-dodecane to form a lipophilic barrier between the donor and acceptor chambers. In case of oral drug delivery, the donor chamber represents the stomach’s condition, while the 18 mL pH 7.4 buffer of acceptor chamber represents the blood circulation. The attempt was started in 16 mL pH 1.6 buffer solution; then after 30 min, media in the dissolution vessel was converted to FaSSIF (pH 6.5) by adding 4 mL of SIF concentrate. Both chambers were stirred at 250 rpm at 37°C to keep the thickness of the unstirred aqueous layer on minimum. In both chambers, the API concentration was followed by immersed UV probes connected to the Rainbow instrument (Pion Inc., Billerica MA, USA). The flux and permeability values were calculated using Eqs. (1) and (2) between 70 and 100 min. […]

Series [2] is described as follows: Large volume dissolution-permeation (MacroFLUX). The class given is in vitro ADME. The conditions noted are these: large scale; donor SGF pH 1.6 converted to FaSSIF pH 6.5 after 30 min, acceptor pH 7.4, 37°C, calculated between 70 and 100 min.
Method: Final dosage forms of TEL were tested using MacroFLUX^TM (Pion Inc., Billerica MA, USA). […] The flux and permeability values were calculated using Eqs. (1) and (2) between 70 and 100 min.
The MacroFLUX system equipped with in situ fiber optic concentration monitoring was used in this final investigation. The same media conversion protocol as in the case of small volume dissolution-permeation measurements was applied in the dissolution vessel [28]. Micardis, the brand formulation, and the pure amorphous drug were used as references.
Receiver chamber integrated with permeation membrane, overhead stirrer and fiber optic UV probe was inserted in the standard 900 mL vessel of USP 2 apparatus (Erweka DT 126 Dissolution Tester, Heusenstamm Germany). A filter-supported artificial membrane (hydrophobic PVDF, polyvinylidenfluoride, 0.45 μm pore size, 3.8 cm^2) impregnated with 50 μL of n-dodecane was separating the dissolution (donor) compartment from the receiver compartment containing 13 mL of pH 7.4 (Prisma^HT, Pion Inc.). The experiment began in 850 mL of pH 1.6 buffer simulating gastric conditions (SGF) on the donor side and then after 30 minutes media in the dissolution vessel was converted to fasted state simulated intestinal fluid (FaSSIF V1) (pH 6.5) by adding 212.5 mL of specially formulated concentrate containing SIF powder. […]
Another series in a line: Solubility of TEL. The class given is physicochemical.
Details of series [3]: method as in PMID 18501462, PMID 31458196. The conditions noted are these: between pH 3 and 8; cited from earlier work.
The nature of series [4]: Kinetic solubility in FaSSIF with pre-dissolved additives (in situ UV probes, ZIM). The class given is physicochemical. The conditions noted are these: 37 °C. The protocol:
Note that in the context of this manuscript, solubility measured by this method will be called kinetic solubility because the form of the solid phase precipitating during these assays was not characterized. […] Ten milliliters of dissolution medium consisting of equilibrated fasted state simulated intestinal fluid (FaSSIF) buffer containing pre-dissolved additives was stirred at 200 rpm and held at 37°C by circulating water through a heating block mounted to a Pion μDISS™ profiler (Pion Inc., Billerica MA, USA). The stock solution was added in 20 μL aliquots to the dissolution medium. 1 M HCl was used to readjust the pH of the media after every addition of the stock solution. During and after addition of the stock solution, UV probes connected to a Pion Rainbow™ Dynamic Dissolution Monitor® system were used to detect changes in UV spectra, thus enabling the detection of precipitation, which provides information about the kinetic solubility limit.
The zero intercept method (ZIM) was implemented in the AuPRO™ software (Pion Inc., Billerica MA, USA), which was considered a suitable method for detecting the solid nanoparticles in solution. It can be noticed that the second derivative spectrum of a particular compound usually crosses the wavelength axis at specific wavelengths that we will call zero intercept method points or ZIM points (λZIM). The ZIM points are characteristic of the compound and are independent of the concentration. The second derivative values at λZIM are expected to be zero […] the compound is fully dissolved. After a critical concentration, solid particles appear in the solution, and a ZIM point shift can be observed. In case of TEL, the ZIM evaluation was carried out at a wavelength of 318 nm.

A short description of series [5]: PAMPA for evaluating the effect of formulation additives on TEL permeability. The conditions noted are these: for Pe: acceptor pH 7.4, 37°C. The class given is in vitro ADME. The protocol: Each well of the top (donor) compartment of 96-well […]™ PAMPA sandwich (Pion Inc., Billerica MA, USA) was coated with 4 μL of n-dodecane. Before forming the sandwich, the bottom (acceptor) plate was prefilled with 180 μL of pH = 7.4 Prisma^HT buffer. The donor plate was filled with 200 μL of FaSSIF buffer with pre-dissolved TEL and formulation additives. The resultant sandwich was incubated at 37°C, and both compartments were stirred at 60 μm (ABL) with Gut-Box™ (Pion Inc., Billerica MA, USA). After 30 min, the PAMPA sandwich was separated, and 100 μL of both the donor and acceptor compartments were transferred to UV plates (UV-star micro plate, clear, flat bottom, half area, Greiner Group AG, Kremsmünster, Austria). UV absorption (230–400 nm) was measured with Tecan Infinite M200 (Tecan Group Ltd., Mannedorf, Switzerland) driven by PAMPA Explorer software™ (Pion Inc., Billerica MA, USA). Three parallel measurements were performed, and the data were measured with six replicates on every single plate.
as §1, §2
At first, an excipient screening on the PAMPA platform was carried out. The excipients of the available TEL formulations and commonly used standard excipients were involved in the investigation of API-excipient interaction. The concentration of the excipients was determined by referring the usual amount of additives in one tablet to 900 mL dissolution media. Due to the experimental differences in the applied doses, the flux data were considered misleading, and the permeability value was used since it is normalized by the donor concentration.
In general terms: In PAMPA a lipid-coated filter parts donor from acceptor wells.

Results on two compounds are retold here after paper PMC8816521, “Flux-Based Formulation Development—A Proof of Concept Study” (The AAPS Journal, 2022).

As usually defined, the solubility is how much of the substance goes into solution per volume. Broadly, the kinetic solubility is the concentration staying in solution when a stock, usually in DMSO, is diluted into the medium.

Structures are written as SMILES. In brackets after ≈: the same amount, converted by molar mass. Like-named read-outs stand apart in the source and are kept apart here.

For the compound `CCCc1nc2c(C)cc(-c3nc4ccccc4n3C)cc2n1Cc1ccc(-c2ccccc2C(=O)O)cc1` [Tel_amorphous, telmisartan], the results for the Pe in series [1] and in series [2] were 1.19 10^−4 cm/sec and 1.03 10^−4 cm/sec, respectively.
In the case of `CCCc1nc2c(C)cc(-c3nc4ccccc4n3C)cc2n1Cc1ccc(-c2ccccc2C(=O)O)cc1` [TEL, telmisartan], in “Solubility of TEL” (1 M NaOH solution, aqueous), the “Solubility in 1 M NaOH solution” value is listed as “dissolves extremely well”. In addition, the solubility was under 1 µg/mL in “Solubility of TEL” (pH 6.5, crystalline TEL in FaSSIF media) and “practically insoluble” in series [3]. Besides, the kinetic solubility came to 37.5 µg/mL (≈ 72.9 µM) in series [4] (FaSSIF buffer with pre-dissolved additive, pH 6.5, aqueous with cosolvent or surfactant or cyclodextrin, TEL in FaSSIF with HPβCD 1386 μg/mL); 45.9 µg/mL (≈ 89.1 µM) in series [4] (FaSSIF buffer with pre-dissolved additive, pH 6.5, aqueous with cosolvent or surfactant or cyclodextrin, TEL in FaSSIF with SDS 850 μg/mL); 64.3 µg/mL (≈ 125 µM) in series [4] (FaSSIF buffer with pre-dissolved additive, pH 6.5, aqueous with cosolvent or surfactant or cyclodextrin, TEL in FaSSIF with Tween 80 0.45 μg/mL); 30.9 µg/mL (≈ 60 µM) in series [4] (FaSSIF buffer with pre-dissolved additive, pH 6.5, fassif, TEL in FaSSIF with HMPC 2910 212 μg/mL); 34.1 µg/mL (≈ 66.3 µM) in series [4] (FaSSIF buffer with pre-dissolved additive, pH 6.5, fassif, TEL in FaSSIF with HPMC-AS 212 μg/mL); 32.8 µg/mL (≈ 63.7 µM) in series [4] (FaSSIF buffer with pre-dissolved additive, pH 6.5, fassif, TEL in FaSSIF with Lactose monohydrate 667 μg/mL). Also, the kinetic solubility in series [4] (FaSSIF buffer with pre-dissolved additive, pH 6.5, fassif, TEL in FaSSIF with Mannitol 667 μg/mL) stood at 39.7 µg/mL (≈ 77.1 µM); in series [4] (FaSSIF buffer with pre-dissolved additive, pH 6.5, fassif, TEL in FaSSIF with PVP K30 212 μg/mL), 34.7 µg/mL (≈ 67.4 µM); in series [4] (FaSSIF buffer with pre-dissolved additive, pH 6.5, fassif, TEL in FaSSIF with PVP K90 212 μg/mL), 34.4 µg/mL (≈ 66.8 µM); in series [4] (FaSSIF buffer with pre-dissolved additive, pH 6.5, fassif, TEL in FaSSIF with Sorbitol 667 μg/mL), 30.7 µg/mL (≈ 59.7 µM); in series [4] (FaSSIF buffer, pH 6.5, fassif, TEL in FaSSIF, no additive (0 μg/mL)), 37.3 µg/mL (≈ 72.4 µM). Further, in series [5] (PAMPA, excipient-free TEL on the plate of the additive in that table row, FaSSIF donor, 37°C, read-out: Reference Pe), the Papp at 30 min turned out to be 111 ×10⁻⁶ cm/s. In addition, the Pe in series [5] (TEL with HMPC 2910 212 μg/mL in FaSSIF donor, 30 min) is reported as 1.22 10^−4 cm/sec; in series [5] (TEL with HPMC-AS 212 μg/mL in FaSSIF donor, 30 min), 1.28 10^−4 cm/sec; in series [5] (TEL with HPβCD 1386 μg/mL in FaSSIF donor, 30 min) it was 1.21 10^−4 cm/sec; in series [5] (TEL with Lactose monohydrate 667 μg/mL in FaSSIF donor, 30 min), 1.39 10^−4 cm/sec; in series [5] (TEL with Mannitol 667 μg/mL in FaSSIF donor, 30 min), 1.23 10^−4 cm/sec; in series [5] (TEL with PVP K30 212 μg/mL in FaSSIF donor, 30 min), 1.31 10^−4 cm/sec. Moreover, the Pe is on record as 1.25 10^−4 cm/sec in series [5] (TEL with PVP K90 212 μg/mL in FaSSIF donor, 30 min); 0.83 10^−4 cm/sec in series [5] (TEL with SDS 850 μg/mL in FaSSIF donor, 30 min); 1.42 10^−4 cm/sec in series [5] (TEL with Sorbitol 667 μg/mL in FaSSIF donor, 30 min); 0.86 10^−4 cm/sec in series [5] (TEL with Tween 80 0.45 μg/mL in FaSSIF donor, 30 min). The “Reference Pe” value in series [5] (excipient-free TEL on the plate of the additive in that table row, FaSSIF donor, 37°C, 30 min) is on record as 1.16 10^−4 cm/sec.
